Common to all, as to assay type: in vitro ADME
The test system of data set [1] is plasma protein of beagle dogs. Description: Protein binding rate by equilibrium dialysis, beagle dogs plasma. Particulars: 2 μM, dialysis 4 hours. Here is the method:
Purpose of the assay: Protein binding rate of the assay compounds in plasma of CD-1 mice, SD rats, beagle dogs, cynomolgus monkeys and human was determined by equilibrium dialysis.
Procedure of the assay: Plasma samples with a compound concentration of 2 μM were prepared using plasma of the above five species, placed in a 96-well equilibrium dialysis device, and dialyzed with phosphate buffer solution at 37±1° C. for 4 hours. Warfarin was used as the control compound in this assay. The concentrations of the assay compounds in plasma and dialysis buffer were determined by LC-MS/MS method.
For orientation: Equilibrium dialysis compares concentrations on both sides of a semipermeable membrane.

Data set [2] is described as follows: Metabolic stability in hepatocytes, beagle dogs. Here is the method:
(§1) Purpose of the assay: Metabolic stabilities of assay compounds in hepatocytes of CD-1 mice, SD rats, beagle dogs, cynomolgus monkeys, and human were assayed, respectively.
(§2) Procedure of the assay: Several 96-well sample precipitation plates were prepared and named T0, T15, T30, T60, T90, T120, TO-MC, T120-MC and blank substrates, respectively. The recovery medium and incubation medium were taken out in advance and placed in a 37° C. water bath for pre-heating. Cryopreserved hepatocytes were removed from the liquid nitrogen tank and immediately immersed in a 37° C. water bath (approximately 90 seconds). After the cryopreserved hepatocytes had thawed and loosened, they were poured into a centrifuge tube containing 40 mL of recovery medium, and the tube was gently inverted to allow the cells to be resuspended in the recovery medium. The cells were centrifuged at 100×g at room temperature for 5 min, and the supernatant was removed. The hepatocytes were resuspended in an appropriate volume of incubation medium, and the cell viability was calculated by Trypan Blue staining method. 198 μL of hepatocyte suspension (0.51×10^6 cells/mL) was added to the preheated incubation plate. For the culture medium control group, 198 μL of hepatocyte-free incubation medium was added to T0-MC and T120-MC incubation plate. All incubation plates were pre-incubated in a 37° C. incubator for 10 minutes. Then 2 μL of working solutions of the assay sample and the control compound were added, respectively, and the mixture was mixed well. The incubation plate was immediately put into the shaker in the incubator, and the reaction was initiated while starting the timer. For each time point of each compound, 2 duplicate samples were prepared. The incubation conditions were 37° C., saturated humidity, and 5% CO2. In the assay system, the final concentration of the assay sample was 1 μM, the final concentration of the control sample was 3 μM, the final concentration of hepatocytes was 0.5×10^6 cells/mL, and the final concentration of the total organic solvent was 0.96%, of which the final concentration of DMSO was 0.1%. At the end of the incubation for the corresponding time point, the incubation plate was taken out, and 25 μL of a mixture of compound and control compound with cells was added to the sample plate containing 125 μL of stop solution (200 ng/mL tolbutamide and labetalol in acetonitrile). For the Blank sample plate, 25 μL of hepatocyte-free incubation medium was added directly. After sealing, all sample plates were shaken on a shaker at 600 rpm for 10 minutes, and then centrifuged at 3220×g for 20 minutes. Supernatants of the assay sample and the control sample were diluted with ultrapure water at a ratio of 1:3. All samples were mixed well and analyzed by LC/MS/MS.

Data set [3] is described as follows: Metabolic stability in hepatocytes, CD-1 mice. Particulars: CD-1 mice hepatocytes. How it is done: as §1, §2
Data set [4] can be described thus: In vitro stability in liver microsomes, SD rats. Particulars: 0.5 mg/mL. Here is the method:
Purpose of the assay: Metabolic stabilities of the assay compounds in liver microsomes of CD-1 mice, SD rats, beagle dogs, cynomolgus monkeys, and human were assayed, respectively.
Procedure of the assay: Two 96-well incubation plates were prepared and named T60 incubation plate and NCF60 incubation plate, respectively. 445 μL of microsomal working solutions (liver microsomal protein concentration of 0.56 mg/mL) were added to the T60 incubation plate and the NCF60 incubation plate, respectively, and then the above incubation plates were pre-incubated in a 37° C. water bath for about 10 minutes.
After the pre-incubation, 5 μL of working solutions of the assay sample or the control compound were added to the T60 incubation plate and the NCF60 incubation plate, respectively, and the mixture was mixed well. 50 μL of potassium phosphate buffer was added to each well of the NCF60 incubation plate to initiate the reaction. 180 μL of stop solution (200 ng/mL tolbutamide and 200 ng/mL labetalol in acetonitrile) and 6 uL of NADPH regeneration system working solution were added to the T0 stop plate, and 54 μL of sample was transferred from T60 incubation plate to T0 stop plate (generation of TO sample). The reaction was initiated by adding 44 μL of NADPH regeneration system working solution to each well of the T60 incubation plate. Only 54 μL of microsome working solution, 6 uL of NADPH regeneration system working solution and 180 μL of stop solution were added to the Blank plate. Therefore, in samples of the assay compound or the control compound, the final reaction concentration of compound, testosterone, diclofenac and propafenone was 1 μM, the concentration of liver microsomes was 0.5 mg/mL, and the final reaction concentrations of DMSO and acetonitrile in the reaction system were 0.01% (v/v) and 0.99% (v/v), respectively.
After an appropriate time (e.g., 5, 15, 30, 45 and 60 minutes) of incubation, 180 μL of stop solutions (200 ng/mL tolbutamide and 200 ng/mL labetalol in acetonitrile) were added to the sample wells of each stop plate, respectively. 60 μL of sample was removed from the T60 incubation plate to stop the reaction. All sample plates were shaken well and then centrifuged at 3220×g for 20 minutes. Then 80 μL of supernatant was taken out from each well, and diluted in 240 μL of pure water for liquid chromatography-tandem mass spectrometry analysis. All samples were injected and analyzed by liquid chromatography-tandem mass spectrometry.
Background: Microsomes from liver hold many membrane-bound enzymes, among them those of drug oxidation.

The nature of data set [5]: Metabolic stability in hepatocytes, human. How it is done: as §1, §2

Consider `C=C(F)C(=O)N1CCN(c2nc(OCC3CCCN3C)nc3c2COC(c2c(F)c(N)cc(C)c2C(F)(F)F)C3)CC1CC#N.Cl` (single isomer, unassigned) [Compound 8B hydrochloride], for which the Protein unbound rate in data set [1] came out at 6.0. Also, the “CLint(hep)” value in data set [2] (1 μM) is listed as below 6.4 μL/min/10^6; in data set [3] (1 μM) it was 76.3 μL/min/10^6; in data set [5] (1 μM), 6.9 μL/min/10^6. The “CLint(liver)” value is listed as below 44 mL/min/kg in data set [2] (1 μM), 906.0 mL/min/kg in data set [3] (1 μM), below 17.3 mL/min/kg in data set [4] (1 μM) and 19.3 mL/min/kg in data set [5] (1 μM). For the same compound, the T1/2 was above 3.613 h in data set [2] (1 μM), 0.303 h in data set [3] (1 μM), above 2.42 h in data set [4] (1 μM) and 3.325 h in data set [5] (1 μM). In data set [4] (1 μM), this compound came in with a CLint(mic) below 9.6 µL/min/mg.

For orientation: half-life means the time in which the quantity being followed falls by half. High values mean slow decline, low ones rapid decline. In data set [1], `C=C(F)C(=O)N1CCN(c2nc(OC[C@@]34CCCN3C[C@H](F)C4)nc3c2COC(c2c(F)c(N)cc(C)c2C(F)(F)F)C3)C[C@@H]1CC#N` (some centres unmarked) [Compound 17] gave a Protein unbound rate of 3.3. Moreover, the results for the “CLint(hep)” value in data set [2] (1 μM), in data set [3] (1 μM) and in data set [5] (1 μM) were 7.6 μL/min/10^6, 146.3 μL/min/10^6 and 13.9 μL/min/10^6, respectively. Also, the half-life at 1 μM in data set [2] (dog, cryopreserved hepatocytes) is 3.04 h; in data set [3] (mouse, cryopreserved hepatocytes), 9.5 min; in data set [4] (rat), 0.383 h; in data set [5] (cryopreserved hepatocytes) it was 1.66 h. Moreover, the CLint scaled at 1 μM is 52.3 mL/min/kg in data set [2] (dog, cryopreserved hepatocytes, read-out: CLint(liver)); 1740 mL/min/kg in data set [3] (mouse, cryopreserved hepatocytes, read-out: CLint(liver)); 108 mL/min/kg in data set [4] (rat); 38.7 mL/min/kg in data set [5] (cryopreserved hepatocytes, read-out: CLint(liver)). Moreover, the CLint(mic) in data set [4] (1 μM) turned out to be 60.2 µL/min/mg.

Values taken from patent US12012404B2, “Pyrimidoheterocyclic compounds and application thereof” (D3 BIO (WUXI) CO., LTD., priority 2020, dated 2024).
